Source: patent publication US20230233569A1 (Revolution Medicines, Inc., priority 2020, published 2023)

Experiments:
Experiment in all cases: Ras-Raf disruption / FRET / MOA assay (BRAF RBD)
Assay type in all cases: biochemical
KRAS G12D = KRAS G12D (Homo sapiens, UniProt P01116+P62937, G12D); details: Ras-Raf disruption, with Cyclophilin A; read-out: KRAS G12D FRET data IC50
How it was run: (§1)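 TR-FRET in 25 mM HEPES pH 7.3, 100 mM NaCl, 5 mM MgCl2, 0.1% BSA, 0.002% Tween20 with 25 μM Cyclophilin A, 12.5 nM His6-Ras-GMPPNP, 50 nM GST-BRAF RBD; compound 10-point 3-fold series from 30 μM. After 3 h at 25 °C, Eu anti-His/APC anti-GST added for 1.5 h; IC50 from ratio decrease versus DMSO.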

KRAS G12S = KRAS G12S (Homo sapiens, UniProt P01116+P62937, G12S); details: Ras-Raf disruption, with Cyclophilin A; read-out: KRAS G12S FRET data IC50
Sequence of KRAS G12S (P01116 1-169 isoform P01116-2 G12S limits assumed): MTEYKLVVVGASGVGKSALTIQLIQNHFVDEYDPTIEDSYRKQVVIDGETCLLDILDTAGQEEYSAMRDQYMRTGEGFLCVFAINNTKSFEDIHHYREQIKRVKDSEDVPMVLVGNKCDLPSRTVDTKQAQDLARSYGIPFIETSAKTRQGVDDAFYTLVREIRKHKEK
Sequence of KRAS G12S (P62937 whole entry): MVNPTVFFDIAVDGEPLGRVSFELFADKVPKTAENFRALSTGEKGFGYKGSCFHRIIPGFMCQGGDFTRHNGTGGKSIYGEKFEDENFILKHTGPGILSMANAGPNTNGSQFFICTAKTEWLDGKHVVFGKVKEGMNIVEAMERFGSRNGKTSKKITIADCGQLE
How it was run: as §1

KRAS G13D = KRAS G13D (Homo sapiens, UniProt P01116+P62937, G13D); details: Ras-Raf disruption, with Cyclophilin A; read-out: KRAS G13D FRET data IC50
Sequence of KRAS G13D (P01116 1-169 isoform P01116-2 G13D limits assumed): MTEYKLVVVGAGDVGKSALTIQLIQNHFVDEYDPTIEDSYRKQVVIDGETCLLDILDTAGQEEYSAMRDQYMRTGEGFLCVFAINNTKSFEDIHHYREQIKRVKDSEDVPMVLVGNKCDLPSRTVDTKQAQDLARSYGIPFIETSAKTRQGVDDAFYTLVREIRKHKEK
Sequence of KRAS G13D (P62937 whole entry): as the sequence (P62937 whole entry) above
How it was run: as §1

KRAS WT = KRAS WT (Homo sapiens, UniProt P01116+P62937); details: Ras-Raf disruption, with Cyclophilin A; read-out: KRAS WT FRET data IC50
Sequence of KRAS WT (P01116 1-169 isoform P01116-2 limits assumed): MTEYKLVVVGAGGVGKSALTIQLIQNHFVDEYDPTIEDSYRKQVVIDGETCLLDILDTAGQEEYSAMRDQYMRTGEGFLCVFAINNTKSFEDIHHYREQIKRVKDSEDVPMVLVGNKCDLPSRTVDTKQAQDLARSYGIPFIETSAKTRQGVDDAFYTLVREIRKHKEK
Sequence of KRAS WT (P62937 whole entry): as the sequence (P62937 whole entry) above
How it was run: as §1

KRAS G13C = KRAS G13C (Homo sapiens, UniProt P01116+P62937, G13C); details: Ras-Raf disruption, with Cyclophilin A; read-out: KRAS G13C FRET data IC50
Sequence of KRAS G13C (P01116 1-169 isoform P01116-2 G13C limits assumed): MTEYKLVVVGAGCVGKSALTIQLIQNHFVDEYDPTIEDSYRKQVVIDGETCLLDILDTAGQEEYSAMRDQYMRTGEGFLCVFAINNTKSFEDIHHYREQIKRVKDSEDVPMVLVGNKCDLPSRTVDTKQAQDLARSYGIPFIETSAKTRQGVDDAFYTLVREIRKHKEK
Sequence of KRAS G13C (P62937 whole entry): as the sequence (P62937 whole entry) above
How it was run: as §1

KRAS G12V = KRAS G12V (Homo sapiens, UniProt P01116+P62937, G12V); details: Ras-Raf disruption, with Cyclophilin A; read-out: KRAS G12V FRET data IC50
Sequence of KRAS G12V (P01116 1-169 isoform P01116-2 G12V limits assumed): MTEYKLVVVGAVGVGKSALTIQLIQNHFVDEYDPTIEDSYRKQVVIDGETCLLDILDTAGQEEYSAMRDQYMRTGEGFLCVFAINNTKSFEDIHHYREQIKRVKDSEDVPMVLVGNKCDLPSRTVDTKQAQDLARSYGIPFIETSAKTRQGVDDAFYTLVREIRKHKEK
Sequence of KRAS G12V (P62937 whole entry): as the sequence (P62937 whole entry) above
How it was run: as §1

NRAS G12C = NRAS G12C (Homo sapiens, UniProt P01111+P62937, G12C); details: NRAS G12C; read-out: NRAS G12C FRET data IC50
Sequence of NRAS G12C (P01111 whole entry G12C): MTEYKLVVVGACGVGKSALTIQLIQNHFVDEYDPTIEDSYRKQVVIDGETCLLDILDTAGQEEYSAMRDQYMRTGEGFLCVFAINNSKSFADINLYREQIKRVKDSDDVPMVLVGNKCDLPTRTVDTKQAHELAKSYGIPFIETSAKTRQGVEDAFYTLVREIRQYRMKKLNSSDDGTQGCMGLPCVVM
Sequence of NRAS G12C (P62937 whole entry): as the sequence (P62937 whole entry) above
How it was run: as §1

KRAS G12C = KRAS G12C (Homo sapiens, UniProt P01116+P62937, G12C); details: Ras-Raf disruption, with Cyclophilin A; read-out: KRAS G12C FRET data IC50
Sequence of KRAS G12C (P01116 1-169 isoform P01116-2 G12C limits assumed): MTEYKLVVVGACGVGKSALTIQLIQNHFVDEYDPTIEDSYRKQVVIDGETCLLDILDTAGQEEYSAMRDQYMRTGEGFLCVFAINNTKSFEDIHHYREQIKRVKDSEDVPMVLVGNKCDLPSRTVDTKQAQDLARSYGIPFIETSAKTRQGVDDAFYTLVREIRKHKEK
Sequence of KRAS G12C (P62937 whole entry): as the sequence (P62937 whole entry) above
How it was run: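 His6-K-Ras G12C-GMPPNP (12.5 nM), GST-BRAF RBD (50 nM) and tagless Cyclophilin A (25 μM) incubated 3 h at 25 °C with compound (10-point 3-fold series from 30 μM), pH 7.3 HEPES buffer. Anti-His Eu/anti-GST APC added for 1.5 h; decreased TR-FRET ratio vs DMSO gives IC50.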

Sequence of KRAS G12D (P01116 1-169 isoform P01116-2 G12D limits assumed): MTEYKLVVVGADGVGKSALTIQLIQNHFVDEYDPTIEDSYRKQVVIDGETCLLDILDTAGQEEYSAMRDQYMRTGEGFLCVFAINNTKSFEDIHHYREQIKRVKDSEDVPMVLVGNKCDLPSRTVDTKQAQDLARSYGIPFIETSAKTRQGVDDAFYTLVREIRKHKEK
Sequence of KRAS G12D (P62937 whole entry): as the sequence (P62937 whole entry) above

Row | SMILES | IC50 (KRAS G12D) [nM] | IC50 (KRAS G12S) [nM] | IC50 (KRAS G13D) [nM] | IC50 (KRAS WT) [nM] | IC50 (KRAS G13C) [nM] | IC50 (KRAS G12V) [nM] | IC50 (NRAS G12C) [nM] | IC50 (KRAS G12C) [nM]
1 | CCn1c(-c2cccnc2[C@H](C)OC)c2c3cc(ccc31)-c1cccc(c1)C[C@H](NC(=O)[C@H](C(C)C)N(C)C(=O)[C@H]1C[C@H](N=C=NCCOC)C1)C(=O)N1CCC[C@H](N1)C(=O)OCC(C)(C)C2 [Example 78] | 1000 to 10000 | 1000 to 10000 | > 10000 | 1000 to 10000 | 10 to 100 | 1000 to 10000 | 10 to 100 | 10 to 100
2 | CCn1c(-c2cccnc2[C@H](C)OC)c2c3cc(ccc31)-c1cc(O)cc(c1)C[C@H](NC(=O)[C@H](C(C)C)N(C)C(=O)c1ncc(NC(=O)[C@@H]3CN3)n1C)C(=O)N1CCC[C@H](N1)C(=O)OCC(C)(C)C2 [Example 83] | 100 to 1000 | 10 to 100 | 10 to 100 | 10 to 100 | 10 to 100 | 10 to 100 | 10 to 100 | 10 to 100
3 | CCn1c(-c2cccnc2[C@H](C)OC)c2c3cc(ccc31)-c1cc(O)cc(c1)C[C@H](NC(=O)[C@H](C(C)C)N(C)C(=O)c1ncc(NC(=O)[C@H]3CN3)n1C)C(=O)N1CCC[C@H](N1)C(=O)OCC(C)(C)C2 [Example 84] | 1000 to 10000 | 100 to 1000 | 100 to 1000 | 100 to 1000 | < 10 | 100 to 1000 | 10 to 100 | 10 to 100
4 | CCn1c(-c2cccnc2[C@H](C)OC)c2c3cc(ccc31)-c1cc(O)cc(c1)C[C@H](NC(=O)[C@H](C(C)C)N(C)C(=O)C1CCN(C(=O)[C@H]3CN3)CC1)C(=O)N1CCC[C@H](N1)C(=O)OCC(C)(C)C2 [Example 86] | 100 to 1000 | 10 to 100 | 10 to 100 | 10 to 100 | 10 to 100 | 100 to 1000 | < 10 | 10 to 100
5 | CCn1c(-c2cccnc2[C@H](C)OC)c2c3cc(ccc31)-c1cc(O)cc(c1)C[C@H](NC(=O)[C@H](C(C)C)N(C)C(=O)c1ccc([C@@H]3CN3)nc1)C(=O)N1CCC[C@H](N1)C(=O)OCC(C)(C)C2 [Example 87] | 1000 to 10000 | 100 to 1000 | 100 to 1000 | 100 to 1000 | 10 to 100 | 100 to 1000 | 10 to 100 | 10 to 100
6 | CCn1c(-c2cccnc2[C@H](C)OC)c2c3cc(ccc31)-c1cc(O)cc(c1)C[C@H](NC(=O)[C@H](C(C)C)N(C)C(=O)C1CCN(C(=O)[C@@H]3CN3)CC1)C(=O)N1CCC[C@H](N1)C(=O)OCC(C)(C)C2 [Example 89] | 100 to 1000 | 10 to 100 | 10 to 100 | 10 to 100 | < 10 | 100 to 1000 | 10 to 100 | 10 to 100
7 | CCn1c(-c2cccnc2[C@H](C)OC)c2c3cc(ccc31)-c1cc(O)cc(c1)C[C@H](NC(=O)[C@H](C(C)C)N(C)C(=O)[C@@H]1CN1)C(=O)N1CCC[C@H](N1)C(=O)OCC(C)(C)C2 [Example 100] | 100 to 1000 | 10 to 100 | 10 to 100 | 10 to 100 | 10 to 100 | 10 to 100 | 10 to 100 | 10 to 100
8 | CCn1c(-c2cccnc2[C@H](C)OC)c2c3cc(ccc31)-c1cc(O)cc(c1)C[C@H](NC(=O)[C@H](C(C)C)N1CCC3(CN(C(=O)[C@@H]4CN4)C3)C1=O)C(=O)N1CCC[C@H](N1)C(=O)OCC(C)(C)C2 [Example 109] | 1000 to 10000 | 100 to 1000 | 10 to 100 | 10 to 100 | 10 to 100 | 100 to 1000 | < 10 | < 10
9 | CCn1c(-c2cccnc2[C@H](C)OC)c2c3cc(ccc31)-c1cc(O)cc(c1)C[C@H](NC(=O)[C@H](C(C)C)N(C)C(=O)[C@H]1CN1)C(=O)N1CCC[C@H](N1)C(=O)OCC(C)(C)C2 [Example 112] | 100 to 1000 | 100 to 1000 | 100 to 1000 | 10 to 100 | 10 to 100 | 100 to 1000 | 100 to 1000 | 100 to 1000
10 | CCn1c(-c2cccnc2[C@H](C)OC)c2c3cc(ccc31)-c1cc(O)cc(c1)C[C@H](NC(=O)[C@H](C(C)C)N1CCC3(CCN(C(=O)[C@@H]4CN4)C3)C1=O)C(=O)N1CCC[C@H](N1)C(=O)OCC(C)(C)C2 (stereo partly shown) [Example 113] | 10 to 100 | 10 to 100 | 10 to 100 | 10 to 100 | 10 to 100 | 10 to 100 | < 10 | < 10
11 | CCn1c(-c2cccnc2[C@H](C)OC)c2c3cc(ccc31)-c1cc(O)cc(c1)C[C@H](NC(=O)[C@H](C(C)C)N1CCC3(CN(C(=O)[C@H]4CN4)C3)C1=O)C(=O)N1CCC[C@H](N1)C(=O)OCC(C)(C)C2 [Example 115] | 100 to 1000 | 100 to 1000 | 10 to 100 | 10 to 100 | 10 to 100 | 100 to 1000 | < 10 | < 10
12 | CCn1c(-c2cccnc2[C@H](C)OC)c2c3cc(ccc31)-c1cccc(c1)C[C@H](NC(=O)[C@H](C(C)C)N(C)C(=O)[C@H]1CC[C@H](N=C=NC34CC(C3)C4)C1)C(=O)N1CCC[C@H](N1)C(=O)OCC(C)(C)C2 [Example 123] | 1000 to 10000 | > 10000 | > 10000 | 1000 to 10000 | 100 to 1000 | 1000 to 10000 | 100 to 1000 | 100 to 1000
13 | CCn1c(-c2cccnc2[C@H](C)OC)c2c3cc(ccc31)-c1cccc(c1)C[C@H](NC(=O)[C@H](C(C)C)N(C)C(=O)[C@H]1CC[C@H](N=C=NC(C)C)C1)C(=O)N1CCC[C@H](N1)C(=O)OCC(C)(C)C2 [Example 124] | 1000 to 10000 | > 10000 | > 10000 | 1000 to 10000 | 10 to 100 | 1000 to 10000 | 10 to 100 | 10 to 100
14 | CCn1c(-c2cccnc2[C@H](C)OC)c2c3cc(ccc31)-c1cccc(c1)C[C@H](NC(=O)[C@H](C(C)C)N(C)C(=O)[C@H]1CC[C@H](N=C=NC(C)(C)C)C1)C(=O)N1CCC[C@H](N1)C(=O)OCC(C)(C)C2 [Example 125] | 1000 to 10000 | > 10000 | > 10000 | > 10000 | 100 to 1000 | > 10000 | 10 to 100 | 10 to 100
15 | CCn1c(-c2cccnc2[C@H](C)OC)c2c3cc(ccc31)-c1cccc(c1)C[C@H](NC(=O)[C@H](C(C)C)N(C)C(=O)[C@H]1C[C@H](N=C=Nc3c(C)cccc3C)C1)C(=O)N1CCC[C@H](N1)C(=O)OCC(C)(C)C2 [Example 126] | 1000 to 10000 | 100 to 1000 | 1000 to 10000 | 1000 to 10000 | 100 to 1000 | 1000 to 10000 | 100 to 1000 | 100 to 1000
16 | CCn1c(-c2cccnc2[C@H](C)OC)c2c3cc(ccc31)-c1cc(O)cc(c1)C[C@H](NC(=O)[C@H](C(C)C)N(C)C(=O)c1ccc(NC(=O)[C@H]3CN3)cn1)C(=O)N1CCC[C@H](N1)C(=O)OCC(C)(C)C2 [Example 127] | 100 to 1000 | 10 to 100 | 100 to 1000 | 100 to 1000 | 10 to 100 | 100 to 1000 | 100 to 1000 | 100 to 1000
17 | CCn1c(-c2cccnc2[C@H](C)OC)c2c3cc(ccc31)-c1cc(O)cc(c1)C[C@H](NC(=O)[C@H](C(C)C)N1CC[C@@]3(CCN(C(=O)[C@@H]4N[C@@H]4C4CC4)C3)C1=O)C(=O)N1CCC[C@H](N1)C(=O)OCC(C)(C)C2 [Example 128] | 100 to 1000 | 100 to 1000 | 100 to 1000 | 100 to 1000 | 10 to 100 | 100 to 1000 | 10 to 100 | 10 to 100
